Target: T1, Sialidase-3 (Homo sapiens, UniProt Q9UQ49)
T1 sequence (Q9UQ49 whole entry): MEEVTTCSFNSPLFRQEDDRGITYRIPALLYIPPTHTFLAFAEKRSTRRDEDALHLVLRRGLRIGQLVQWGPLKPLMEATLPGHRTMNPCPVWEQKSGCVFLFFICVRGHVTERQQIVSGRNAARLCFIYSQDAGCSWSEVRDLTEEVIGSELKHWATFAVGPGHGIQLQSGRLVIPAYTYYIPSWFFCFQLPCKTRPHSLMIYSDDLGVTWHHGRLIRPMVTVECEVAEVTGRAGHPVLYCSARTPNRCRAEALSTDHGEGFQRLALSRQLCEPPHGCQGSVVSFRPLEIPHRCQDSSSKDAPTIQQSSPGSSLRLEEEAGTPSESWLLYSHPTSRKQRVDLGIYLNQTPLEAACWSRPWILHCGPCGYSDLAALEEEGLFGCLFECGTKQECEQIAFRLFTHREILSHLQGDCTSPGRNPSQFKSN
Experiment: Inhibition of human recombinant NEU3 expressed in Escherichia coli pre-incubated for 10 mins before addition of followed by the addition of MUNANA substrate

- IC50: 5 µM
SMILES: C#CCCC(=O)N[C@@H]1[C@@H](O)[C@@H](F)[C@](F)(C(=O)O)O[C@H]1[C@H](O)[C@H](O)CO

— ChEMBL document CHEMBL3588776, “Inhibitors of the human neuraminidase enzymes” (Medchemcomm, 2014)
